Measured values taken from US6609014B1, “Use of PDT to inhibit intimal hyperplasia” (QLT Inc., priority 1999, dated 2003).
Values joined by “and” are separate entries in the source; they are usually repeats but may differ in a detail not shown here. Equal values may be shown once.

How the values were obtained:
[1] = tested on: elastic lamina of the vein; assay: Elastin (Verhoeff's elastic) staining of AV fistula veins after PDT; format: in vivo, Domestic swine; settings: 48 h and 1 month samples
Procedure: (§1) Measurements and observations were made by morphometric analysis of cross-sections of fistulae stained with Verhoeff's elastic to assess the integrity of the vessel wall and also clearly demarcate the internal elastic lamina (IEL) for the measurement of IH. Areas within the lumen and those circumscribed by the internal elastic lamina (IEL) and the external elastic lamina (EEL) were measured directly using the Optimas (Optimas Corporation, Bothell, Wash., USA) program. The areas of the intima and the media were calculated by subtraction: intimal area equals the […], and medial area equals EEL area minus IEL area.

[2] = tested on: intimal hyperplasia in the vein of AV fistulae between the carotid artery and internal jugular vein; assay: One-month dose optimization: PDT of bilateral end-to-side AV fistulae, morphometric analysis of vein cross-sections; format: in vivo, Domestic swine; design: key to PDT-treated fistula thrombosed (T) / PDT-treated fistula thrombosed: T = thrombosed; settings: for Percent Lumen Compromised by Intimal Hyperplasia, PDT, Block #1 / Percent Lumen Compromised by Intimal Hyperplasia, PDT, Block #2 / Percent Lumen Compromised by Intimal Hyperplasia, Control-PDT, Block #1, Mean / Percent Lumen Compromised by Intimal Hyperplasia, Control-PDT, Block #2, Mean / Percent Lumen Compromised by Intimal Hyperplasia, PDT, Block #2, Mean / Percent Lumen Compromised by Intimal Hyperplasia, PDT, Block #1, Mean / PDT-treated fistula thrombosed (T) / Percent Lumen Compromised by Intimal Hyperplasia, Control-PDT, Block #1 / Percent Lumen Compromised by Intimal Hyperplasia, Control-PDT, Block #2: 40 min OR lamp light
Description: Domestic swine (male, 40-50 kg) were used for experiments related to the present invention. Extensive research has been performed to characterize the changes leading to intimal hyperplasia (IH) in the arteries and veins of swine, which closely resemble those in humans (22). AV fistulae were created in several pigs to confirm that measurable IH developed in the vein, just distal to the anastomoses, within one month (FIG. 1A).
Pigs were recovered and left for four weeks at which time they were exsanguinated and perfused with 10% formalin. The fistulae were surgically excised for processing and wax embedding for histology (FIGS. 1A and 2). Wax blocks containing the fistulae were cut to provide sections containing a cross-section of the anastomoses, including the artery and vein distal to the sutures (FIGS. 1A, 1B, and 3).
A porous balloon catheter was introduced into the lumen of veins to deliver either 2 mL of BPD-MA (diluted in 5% dextrose in water) or 5% dextrose in water (control), at a delivery pressure of 2 mm Hg. Two minutes later, the photosensitizer (or dextrose) was rinsed out with heparinized saline before light exposure.
The adventitia of the vein was exposed to the operating room (OR) lamp light for 40 minutes (a combination of incandescent bulbs and fluorescence tubes—approximately 1 J/cm^2).
as §1
Statistical analysis was conducted using the two tailed t-Test (two-sample assuming unequal variances) for comparisons between groups of PDT-treated and control fistulae and paired t-tests for paired comparisons of PDT-treated and control fistulae.
End-to-side AV fistulae between the carotid artery and internal jugular vein were treated at four different BPD-MA doses (0.015, 0.15, 0.5 & 1.5 mg/2 mL) and exposed to 40 minutes of operating room (OR) lamp and ambient light to determine the optimal doses required to inhibit IH while causing minimal damage to the vein wall. Bilateral AV fistulae were created. For example, one side was treated with saline and 40 min. OR lamp light, while the other side was treated with BPD-MA (0.015 mg/2 mL or the other doses) and 40 min. OR lamp light after creating the anastomoses. At least six pigs were treated using each BPD-MA dose and the 40 minutes OR lamp light delivery system.
Optimization of PS and radiation dose was performed. Bilateral end-to-side AV fistula between the carotid artery and jugular vein were created in 29 pigs. Animals were sacrificed 4 weeks after PDT, and the fistulae were surgically excised and processed for histology. Computer-assisted measurement of the lumen area and,the area delimited by the internal elastic lamina (IEL) and external elastic lamina (EEL) was performed on 5 sections of the vein. The IH was calculated by subtracting the lumen area from the […]. Medial hyperplasia was calculated by subtracting the IEL area from the EEL area.
For each fistula, the percent of the lumen compromised by the intima hyperplasia (%LCIH=IEL−Lumen/IEL) was calculated for the first two complete blocks from the tip of the anastomosis, since IH is most often observed clinically within 1 cm of the anastomosis. Differences in the % LCIH between control and treated sides were averaged for each dose group. Results are presented in Tables 1 a and 1b as well as illustrated in FIGS. 2 and 3.

[3] = 0.015 mg BPD-MA/2 mL into vein lumen, one month, individual pigs
[4] = 0.015 mg BPD-MA/2 mL, one month, group mean
[5] = 0.015 mg BPD-MA/2 mL, one month, individual pigs
[6] = 0.15 mg BPD-MA, OR lamp, one month, group mean
[7] = 0.15 mg BPD-MA, OR lamp, one month, individual pigs
[8] = 0.15 mg BPD-MA/2 mL into vein lumen, one month, individual pigs
[9] = 0.15 mg BPD-MA/2 mL, one month, group mean
[10] = 0.15 mg BPD-MA/2 mL, one month, individual pigs
[11] = 0.15 mg BPD-MA, one month, relative to control mean
[12] = 0.15 mg BPD-MA, one month, treated vs control fistulae
[13] = 0.5 mg BPD-MA/2 mL into vein lumen, one month, individual pigs
[14] = 0.5 mg BPD-MA/2 mL, one month, group mean
[15] = 0.5 mg BPD-MA/2 mL, one month, individual pigs
[16] = 1.5 mg BPD-MA/2 mL into vein lumen, one month, individual pigs
[17] = 1.5 mg BPD-MA/2 mL, one month, group mean
[18] = 1.5 mg BPD-MA/2 mL, one month, individual pigs

benzoporphyrin derivative monoacid ring A [BPD-MA]
Damage to the elastic lamina due to PDT [1]: no sign of damage to the elastic lamina
Percent Lumen Compromised by Intimal Hyperplasia, PDT, Block #1 [2, 3]: 3.1% and 21.3% and 9% and 30.3% and 3.4% and 2.2%
Percent Lumen Compromised by Intimal Hyperplasia, PDT, Block #2 [2, 3]: 2.4% and 2.3% and 5% and 13% and 8.6% and 1.8%
Percent Lumen Compromised by Intimal Hyperplasia, Control-PDT, Block #1, Mean [2, 4]: 1.5%
Percent Lumen Compromised by Intimal Hyperplasia, Control-PDT, Block #2, Mean [2, 4]: 2.9%
Percent Lumen Compromised by Intimal Hyperplasia, PDT, Block #2, Mean ([2]; 0.015 mg BPD-MA/2 mL, one month, group mean, p = 0.36 vs control): 5.5%
Percent Lumen Compromised by Intimal Hyperplasia, PDT, Block #1, Mean ([2]; 0.015 mg BPD-MA/2 mL, one month, group mean, p = 0.39 vs control): 11.6%
PDT-treated fistula thrombosed (T) [2, 5]: T
Percent Lumen Compromised by Intimal Hyperplasia, Control-PDT, Block #1 [2, 5]: −0.2% and 10.2% and −4% and −27.2% and 24.9% and 5.3%
Percent Lumen Compromised by Intimal Hyperplasia, Control-PDT, Block #2 [2, 5]: −0.2% and 27.1% and −2% and −6.5% and −1.9% and 0.9%
Change in amount of IH between control and treated veins ([2]; 0.015 mg BPD-MA, one month): little change
Percent Medial Hyperplasia, PDT, Block #1, Mean [2, 6]: 10.0%
Percent Medial Hyperplasia, PDT, Block #2, Mean [2, 6]: 11.5%
PDT-treated fistula thrombosed [2, 7]: T
Percent Medial Hyperplasia, PDT, Block #1 [2, 7]: 5.9% and 15.3% and 6.2% and 12.5% and 9.8%
Percent Medial Hyperplasia, PDT, Block #2 [2, 7]: 10.3% and 5.7% and 18.2% and 9.8% and 13.7%
Percent Lumen Compromised by Intimal Hyperplasia, PDT, Block #1 [2, 8]: 7.1% and 19.3% and 4.6% and 9.2% and 6.9% and 21.1%
Percent Lumen Compromised by Intimal Hyperplasia, PDT, Block #2 [2, 8]: 7% and 9.1% and 6.7% and 2.5% and 3.6% and 8.6%
Percent Lumen Compromised by Intimal Hyperplasia, Control-PDT, Block #1, Mean [2, 9]: 7.0%
Percent Lumen Compromised by Intimal Hyperplasia, Control-PDT, Block #2, Mean [2, 9]: 9.25%
Percent Lumen Compromised by Intimal Hyperplasia, PDT, Block #2, Mean ([2]; 0.15 mg BPD-MA/2 mL, one month, group mean, p = 0.06 vs control): 6.3%
Percent Lumen Compromised by Intimal Hyperplasia, PDT, Block #1, Mean ([2]; 0.15 mg BPD-MA/2 mL, one month, group mean, p = 0.095 vs control): 11.4%
PDT-treated fistula thrombosed (T) [2, 10]: T
Percent Lumen Compromised by Intimal Hyperplasia, Control-PDT, Block #1 [2, 10]: 24.2% and −1.5% and 8.2% and −2.9%
Percent Lumen Compromised by Intimal Hyperplasia, Control-PDT, Block #2 [2, 10]: 2.7% and 14.8% and 0.5% and 19%
Relative reduction of intimal hyperplasia (mean PDT-induced decrease), first block [2, 11]: 38%
Relative reduction of intimal hyperplasia (mean PDT-induced decrease), second block [2, 11]: 55%
Reduction in % LCIH, first block [2, 12]: 7.0%
Reduction in % LCIH, second block [2, 12]: 9.3%
Difference in medial thickness between PDT-treated and control samples, block 2 ([2]; 0.15 mg/2 mL, one month): little difference
Difference in medial thickness between PDT-treated and control samples, first block ([2]; 0.15 mg/2 mL, one month): 44%
Percent Lumen Compromised by Intimal Hyperplasia, PDT, Block #1 [2, 13]: 18.1% and 16.6% and 32.0%
Percent Lumen Compromised by Intimal Hyperplasia, PDT, Block #2 [2, 13]: 11.2% and 6.8% and 3.4%
Percent Lumen Compromised by Intimal Hyperplasia, Control-PDT, Block #1, Mean [2, 14]: 0.5%
Percent Lumen Compromised by Intimal Hyperplasia, Control-PDT, Block #2, Mean [2, 14]: 0.9%
Percent Lumen Compromised by Intimal Hyperplasia, PDT, Block #1, Mean [2, 14]: 22.2%
Percent Lumen Compromised by Intimal Hyperplasia, PDT, Block #2, Mean [2, 14]: 7.1%
PDT-treated fistula thrombosed (T) [2, 15]: T
Percent Lumen Compromised by Intimal Hyperplasia, Control-PDT, Block #1 [2, 15]: −13.0% and 5.1% and 9.4%
Percent Lumen Compromised by Intimal Hyperplasia, Control-PDT, Block #2 [2, 15]: −8.3% and 2.1% and 9.0%
Difference in IH between treated and control fistulae ([2]; 0.5 mg BPD-MA, one month): Little difference
Percent Lumen Compromised by Intimal Hyperplasia, PDT, Block #1 [2, 16]: 19.4% and 17.4% and 21.6% and 41.8% and 12.7%
Percent Lumen Compromised by Intimal Hyperplasia, PDT, Block #2 [2, 16]: 43.0% and 1.7% and 11.7% and 53.8% and 13.9%
Percent Lumen Compromised by Intimal Hyperplasia, Control-PDT, Block #1, Mean [2, 17]: −14.9%
Percent Lumen Compromised by Intimal Hyperplasia, Control-PDT, Block #2, Mean [2, 17]: −23.6%
Percent Lumen Compromised by Intimal Hyperplasia, PDT, Block #1, Mean [2, 17]: 22.6%
Percent Lumen Compromised by Intimal Hyperplasia, PDT, Block #2, Mean [2, 17]: 24.8%
PDT-treated fistula thrombosed (T) [2, 18]: T
Percent Lumen Compromised by Intimal Hyperplasia, Control-PDT, Block #1 [2, 18]: −0.7% and −13.7% and −38.9% and −6.2%
Percent Lumen Compromised by Intimal Hyperplasia, Control-PDT, Block #2 [2, 18]: −37.9% and 5.1% and −49.9% and −11.8%
Effect on IH ([2]; 1.5 mg dose BPD-MA, one month): appeared to induce IH
Effect on development of IH, high doses ([2]; PDT with high doses of BPD-MA): either did not modulate the development of IH or actually induced IH
Thrombogenicity of vessel wall, high doses ([2]; PDT with high doses of BPD-MA, one month): appeared to render the vessel wall more thrombogenic
Percent IH in PDT-treated vs control fistulae, responders only ([2]; all animals 0.015 to 1.5 mg/2 ml BPD-MA, excluding those with less than 10% IH in control fistulae, Block 1 p=0.03, Block 2 p=0.02): significantly less
Average one-month thrombosis incidence, PDT-treated fistulae ([2]; all doses (0.015-1.5 mg/2 mL BPD-MA), control fistulae 26.0%): 26.6%
Effect on IH at the anastomosis of arteriovenous grafts, low doses ([2]; low doses (0.15 mg/2 ml) locally delivered BPD-MA, ambient light from operating room lamps): resulted in the reduction of IH
Incidence of thrombosis, low-dose PDT ([2]; low-dose PDT, one month): not associated with an increase in the incidence of thrombosis
Effect of PDT on medial thickening ([2]; one month): did not affect medial thickening
Number of fistulae that thrombosed vs drug dose ([2]; one month, 0.015-1.5 mg/2 mL): correlated roughly with increasing drug dose
Statistical significance of differences in intimal thickening between PDT-treated and control veins ([2]; one month, marked with some doses (0.15 mg)): not statistically significant
